Values joined by “and” are separate entries in the source; they are usually repeats but may differ in a detail not shown here. Equal entries are not always repeated. Toxic doses and inconclusive results are not listed. Rule for the calls: active = survival T/C of 150% or more; inactive = T/C below 125% in these data.
Tested on: P388 leukemia ip, CD2F1 mice, survival T/C
Assay: NCI In Vivo Anticancer Drug Screen. Data for tumor model P388 Leukemia (intraperitoneal) in CD2F1 (CDF1) mice
Settings: endpoint: median survival time, higher = longer survival
Summary of the method: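 Mice carrying the transplanted tumor received test compound or vehicle. Survival was recorded in each group, and the value is the treated-group measurement divided by that of the vehicle-treated control group.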

[1] = dose: 60.0 mg/kg/injection, schedule: Q01DX005 (ip), vehicle: saline
[2] = dose: 120.0 mg/kg/injection, schedule: Q01DX005 (ip), vehicle: saline
[3] = dose: 25.0 mg/kg/injection, schedule: Q01DX009 (ip), vehicle: saline with Tween-80
[4] = dose: 50.0 mg/kg/injection, schedule: Q01DX009 (ip), vehicle: saline with Tween-80
[5] = dose: 100.0 mg/kg/injection, schedule: Q01DX009 (ip), vehicle: saline with Tween-80
[6] = dose: 100.0 mg/kg/injection, schedule: Q01DX001 (ip), vehicle: saline with Tween-80
[7] = dose: 3.13 mg/kg/injection, schedule: Q01DX009 (ip), vehicle: water
[8] = dose: 6.25 mg/kg/injection, schedule: Q01DX009 (ip), vehicle: water
[9] = dose: 12.5 mg/kg/injection, schedule: Q01DX009 (ip), vehicle: water

Measured: T/C

CCOc1c(N=Nc2cccc(Cl)c2)c(C)nn1C(=S)SC
inactive: dose: 60.0 mg/kg/injection, schedule: Q01DX005 (ip), vehicle: Klucel + Tween-80 94 % of control | dose: 120.0 mg/kg/injection, schedule: Q01DX005 (ip), vehicle: Klucel + Tween-80 98 % of control | dose: 240.0 mg/kg/injection, schedule: Q01DX005 (ip), vehicle: Klucel + Tween-80 99 % of control

CCN(CC)CCNc1ccccc1
inactive: [1] 99 % of control | [2] 99 % of control

COc1ccc(C(=O)OC2(C)CC(C)(C)N=[N+]2[O-])cc1 (centres undefined)
inactive: dose: 12.5 mg/kg/injection, schedule: Q01DX009 (ip), vehicle: other 108 % of control | dose: 25.0 mg/kg/injection, schedule: Q01DX009 (ip), vehicle: other 113 % of control | dose: 50.0 mg/kg/injection, schedule: Q01DX009 (ip), vehicle: other 115 % of control | dose: 66.0 mg/kg/injection, schedule: Q01DX009 (ip), vehicle: other 102 % of control | dose: 100.0 mg/kg/injection, schedule: Q01DX009 (ip), vehicle: other 100 % of control | dose: 150.0 mg/kg/injection, schedule: Q01DX009 (ip), vehicle: other 92 % of control | dose: 200.0 mg/kg/injection, schedule: Q01DX009 (ip), vehicle: other 113 % of control

[Cl][Pt+2][Cl].[NH-]c1nc2ccc(Br)cc2s1.[NH-]c1nc2ccc(Br)cc2s1
inactive: dose: 100.0 mg/kg/injection, schedule: Q04DX002 (ip), vehicle: saline with Tween-80 103 % of control | dose: 200.0 mg/kg/injection, schedule: Q04DX002 (ip), vehicle: saline with Tween-80 91 % of control

CCOP(=O)(OCC)c1ncn(Cc2ccccc2)c1N
inactive: dose: 100.0 mg/kg/injection, schedule: Q01DX001 (ip), vehicle: saline 97 % of control | dose: 200.0 mg/kg/injection, schedule: Q01DX001 (ip), vehicle: saline 104 % of control | dose: 400.0 mg/kg/injection, schedule: Q01DX001 (ip), vehicle: saline 101 % of control

Nc1nc(N)nc(N2CCCC2)n1
inactive: [3] 101 % of control | [4] 97 % of control | [5] 92 % of control

O=C(CBr)c1cc2c(cc1I)OCO2
inactive: dose: 6.25 mg/kg/injection, schedule: Q01DX001 (ip), vehicle: saline with Tween-80 104 % of control | dose: 12.5 mg/kg/injection, schedule: Q01DX001 (ip), vehicle: saline with Tween-80 105 % of control | dose: 25.0 mg/kg/injection, schedule: Q01DX001 (ip), vehicle: saline with Tween-80 99 % of control and 101 % of control | [6] 100 % of control

CC(=O)OC1CC(OC(C)=O)C(OC(C)=O)C(CS[As](C)C)O1 (centres undefined)
inactive: [4] 99 % of control | [5] 99 % of control | dose: 200.0 mg/kg/injection, schedule: Q01DX009 (ip), vehicle: saline with Tween-80 96 % of control

NC(=O)C(CCO)NC(=O)OCc1ccccc1 (centres undefined)
inactive: dose: 4.0 mg/kg/injection, schedule: Q01DX009 (ip), vehicle: other 101 % of control | dose: 8.0 mg/kg/injection, schedule: Q01DX009 (ip), vehicle: other 106 % of control | dose: 16.0 mg/kg/injection, schedule: Q01DX009 (ip), vehicle: other 101 % of control | dose: 32.0 mg/kg/injection, schedule: Q01DX009 (ip), vehicle: other 101 % of control and 105 % of control | dose: 64.0 mg/kg/injection, schedule: Q01DX009 (ip), vehicle: other 97 % of control | dose: 128.0 mg/kg/injection, schedule: Q01DX009 (ip), vehicle: other 88 % of control | dose: 256.0 mg/kg/injection, schedule: Q01DX009 (ip), vehicle: other 99 % of control

CC(C)N1COC2Cc3ccccc3CC21 (centres undefined)
inactive: dose: 6.25 mg/kg/injection, schedule: Q01DX005 (ip), vehicle: saline 99 % of control | dose: 12.5 mg/kg/injection, schedule: Q01DX005 (ip), vehicle: saline 101 % of control | dose: 25.0 mg/kg/injection, schedule: Q01DX005 (ip), vehicle: saline 101 % of control and 110 % of control | dose: 50.0 mg/kg/injection, schedule: Q01DX005 (ip), vehicle: saline 117 % of control and 120 % of control and 121 % of control

Cc1ccccc1-[n+]1noc(N)n1
inactive: [7] 101 % of control | [8] 113 % of control | [9] 120 % of control | dose: 14.7 mg/kg/injection, schedule: Q01DX009 (ip), vehicle: water 106 % of control

O=C1OC2C(O)C(N(O)c3ccccc3)OC2[C@@H]1O (some centres undefined)
inactive: dose: 60.0 mg/kg/injection, schedule: Q01DX005 (ip), vehicle: saline with Tween-80 100 % of control | dose: 120.0 mg/kg/injection, schedule: Q01DX005 (ip), vehicle: saline with Tween-80 106 % of control | dose: 240.0 mg/kg/injection, schedule: Q01DX005 (ip), vehicle: saline with Tween-80 106 % of control

COC1OC(CO)C(O)C2OCCOCCOC3C(OC)OC(CO)C(O)C3OCCOCCOC12 (centres undefined)
inactive: [1] 103 % of control | [2] 101 % of control | dose: 240.0 mg/kg/injection, schedule: Q01DX005 (ip), vehicle: saline 97 % of control

COC(=O)CCC1=C(C)c2cc3[nH]c(cc4[nH]c(cc5nc(cc1n2)C(CCC(=O)OC)=C5C)c(C1CC1C(=O)OC)c4C)c(C1CC1C(=O)OC)c3C (centres undefined)
inactive: dose: 50.0 mg/kg/injection, schedule: Q01DX005 (ip), vehicle: Klucel (hydroxypropylcellulose) (HPC) 104 % of control | dose: 100.0 mg/kg/injection, schedule: Q01DX005 (ip), vehicle: Klucel (hydroxypropylcellulose) (HPC) 104 % of control | dose: 200.0 mg/kg/injection, schedule: Q01DX005 (ip), vehicle: Klucel (hydroxypropylcellulose) (HPC) 109 % of control

CN(C)CCCC1(c2cccc(Cl)c2)SC(C)(C)c2ccccc21 (centres undefined)
inactive: dose: 25.0 mg/kg/injection, schedule: Q01DX001 (ip), vehicle: saline 97 % of control | dose: 50.0 mg/kg/injection, schedule: Q01DX001 (ip), vehicle: saline 93 % of control

O=Cc1cccc[n+]1Cc1ccc2c(c1)OCO2
inactive: dose: 25.0 mg/kg/injection, schedule: Q01DX009 (ip), vehicle: distilled water + Tween-80 100 % of control | dose: 50.0 mg/kg/injection, schedule: Q01DX009 (ip), vehicle: distilled water + Tween-80 100 % of control

CC(=O)N1CN=C2Sc3ccccc3N2C1
inactive: dose: 15.0 mg/kg/injection, schedule: Q01DX005 (ip), vehicle: Klucel (hydroxypropylcellulose) (HPC) 103 % of control | dose: 30.0 mg/kg/injection, schedule: Q01DX005 (ip), vehicle: Klucel (hydroxypropylcellulose) (HPC) 105 % of control | dose: 60.0 mg/kg/injection, schedule: Q01DX005 (ip), vehicle: Klucel (hydroxypropylcellulose) (HPC) 100 % of control and 104 % of control

COc1cc(C=Nc2cccc3c2NCCC3)cc(OC)c1OC
inactive: [6] 105 % of control | dose: 200.0 mg/kg/injection, schedule: Q01DX001 (ip), vehicle: saline with Tween-80 98 % of control | dose: 400.0 mg/kg/injection, schedule: Q01DX001 (ip), vehicle: saline with Tween-80 98 % of control

O=C(O)C1C(C(=O)O)C2(Cl)C(Cl)=C(Cl)C1(Cl)C2(Cl)Cl.[Cu+2] (centres undefined)
inactive: dose: 50.0 mg/kg/injection, schedule: Q01DX001 (ip), vehicle: saline sonified 104 % of control | dose: 100.0 mg/kg/injection, schedule: Q01DX001 (ip), vehicle: saline sonified 118 % of control

COC(=O)c1ccccc1N=NNc1ccccc1C(N)=O
inactive: dose: 100.0 mg/kg/injection, schedule: Q04DX003 (ip), vehicle: saline with Tween-80 90 % of control | dose: 200.0 mg/kg/injection, schedule: Q04DX003 (ip), vehicle: saline with Tween-80 97 % of control | dose: 400.0 mg/kg/injection, schedule: Q04DX003 (ip), vehicle: saline with Tween-80 99 % of control

O=C1OC(=O)C23Cc4ccccc4CC12CC1Cc2ccccc2CC1C3 (centres undefined)
inactive: dose: 50.0 mg/kg/injection, schedule: Q01DX009 (ip), vehicle: Klucel (hydroxypropylcellulose) (HPC) 100 % of control | dose: 100.0 mg/kg/injection, schedule: Q01DX009 (ip), vehicle: Klucel (hydroxypropylcellulose) (HPC) 88 % of control | dose: 200.0 mg/kg/injection, schedule: Q01DX009 (ip), vehicle: Klucel (hydroxypropylcellulose) (HPC) 94 % of control

O=C(CCl)N1c2ccccc2Sc2ccc(Cl)cc21
inactive: [7] 117 % of control | [8] 117 % of control | [9] 111 % of control

COC1/C=C/OC2(C)Oc3c(C)c(O)c4c(O)c(c(/C=N/N5C(C)CN(Cc6ccc(C(C)(C)C)cc6)CC5C)c(O)c4c3C2=O)NC(=O)/C(C)=C\C=C\C(C)C(O)C(C)C(O)C(C)C(OC(C)=O)C1C (centres undefined)
inactive: [3] 119 % of control | dose: 25.0 mg/kg/injection, schedule: Q01DX009 (ip), vehicle: suspension in saline 104 % of control | [4] 102 % of control and 94 % of control | dose: 50.0 mg/kg/injection, schedule: Q01DX009 (ip), vehicle: suspension in saline 108 % of control | [5] 119 % of control | dose: 100.0 mg/kg/injection, schedule: Q01DX009 (ip), vehicle: suspension in saline 100 % of control | dose: 200.0 mg/kg/injection, schedule: Q01DX009 (ip), vehicle: suspension in saline 95 % of control

From PubChem BioAssay AID330 (DTP/NCI, 2004)
